Tested on: metabolism of retinoic acid in human breast cancer cells
Experiment: Inhibition of retinoic acid (RA) metabolism (Example C.1)
Type: cell-based
Conditions: MCF7; MCF-7 human breast cancer cells, 3H-RA as substrate; concentration needed to reduce the amount of metabolites to 50% of the control
Text: (§1) The property to delay the metabolism of retinoic acid can be evidenced in various in vitro and in vivo experiments. A particular in vitro procedure is described in example C.1 and tests the inhibitory activity of the compounds of formula (I) on the metabolism of retinoic acid in human breast cancer cells. The compounds of the present invention were also effective in suppressing induced vaginal keratinization effects in ovariectomized rats as is described in example C.2.
Inhibition of Retinoic Acid (RA) Metabolism
MCF-7 human breast cancer cells were grown as stock cultures according to art-known protocols. One day before the experiment, RA is added to the stock cultures to stimulate RA-metabolism. At the start of the experiment, cell suspensions were incubated in a tissue culture medium containing ^3H-RA as the substrate. Different concentrations of the test compound (dissolved in 1% DMSO) were added to the incubation mixtures, and at the end of the incubation, the unmetabolized RA is separated from its polar metabolites. The fraction containing the polar ^3H-labelled metabolites was collected and counted in a scintillation counter. For each experiment, a control and a blank incubation were run in parallel. Table 22 list the IC50 value (defined as the concentration in M needed to reduce the amount of metabolites to 50% of the control).

| IC50 [nM] | Compound |
| --- | --- |
| 9.69 | CC(C)C(c1ccc(NC(N)=S)cc1)n1ccnc1 (racemic) [Compound 699, (±)-4-[1-(1H-imidazol-1-yl)-2-methylpropyl]phenylthiourea] |
| > 100 | CC(C)C(c1ccc(NC(=N)Nc2cccc(F)c2)cc1)n1ccnc1 (stereo not shown) [Compound 744, N′-(3-fluorophenyl)-N-[4-[1-(1H-imidazol-1-yl)-2-methylpropyl]phenyl]guanidine] |

Same assay, conditions: MCF-7 human breast cancer cells, 3H-RA as substrate; concentration needed to reduce the amount of metabolites to 50% of the control

| IC50 [nM] | Compound |
| --- | --- |
| > 100 | CCCCCC(C)C(c1ccc(NC(=O)/C(C)=C/c2ccccc2)cc1)n1ccnc1 (single isomer, unassigned) [Compound 488] |
| > 1000 | C/C(=C\c1ccccc1)C(=O)Nc1ccc(C(c2cccc(F)c2)n2cncn2)cc1 (stereo not shown) [Compound 620] |
| 0.829 | CCC(C(c1ccc(NC(=O)Cc2ccc(OC)c(OC)c2)cc1)n1ccnc1)N(C)C (single isomer, unassigned) [Compound 388] |
| 0.895 | CCC(CC)C(c1ccc(NC(=O)Cc2ccc(OC)nc2)cc1)n1ccnc1 (racemic) [Compound 51] |
| > 100 | CC(C)C(c1ccc(NC(=O)Cc2ccc(Cl)cc2)cc1)c1ccccn1 (racemic) [Compound 687] |
| 1.84 | C/C(=C\c1ccccc1)C(=O)Nc1ccc(C(c2ccc3c(c2)C(C)(C)CCC3(C)C)n2ccnc2)cc1 (racemic) [Compound 491] |
| 0.138 | CCC(CC)C(c1ccc(NC(C)=O)cc1)n1cncn1 (stereo not shown) [Compound 1] |
| 3.88 | CCC(CC)C(c1ccc(NC(=O)Cc2cc(OC)ccc2OCc2ccccc2)cc1)n1ccnc1 (racemic) [Compound 120] |
| 4.86 | CCC(CC)C(c1ccc(NC(=O)C(O)c2ccc(Cl)cc2)cc1)n1ccnc1 (stereo not shown) [Compound 54] |
| 3.03 | CC(C)C(c1ccc(NC(=O)Cc2ccc(N)cc2)cc1)n1ccnc1 (stereo not shown) [Compound 145, (A)-4-amino-N-[4-[1-(1H-imidazol-1-yl)-2-methylpropyl]phenyl]benzeneacetamide] |
| 0.0829 | COc1ccc(CC(=O)Nc2ccc(C(C(C)N(C)C)n3ccnc3)cc2)cc1Cl (single isomer, unassigned) [Compound 305] |
| 9.29 | CC(C)C(c1ccc(NC(=O)Cc2ccc(N=[N+]=[N-])c(I)c2)cc1)n1ccnc1 (stereo not shown) [Compound 259, (B)-4-azido-N-[4-[1-(1H-imidazol-1-yl)-2-methylpropyl]phenyl]-3-iodobenzenacetamide] |
| > 100 | CC(C)C(c1ccc(NC(=O)Nc2cccc(F)c2)cc1)c1ccccn1 (stereo not shown) [Compound 691] |
| 0.94 | CCC(CC)C(c1ccc(NC(=O)Cc2cc(OC)cc(OC)c2)cc1)n1ccnc1 (racemic) [Compound 119] |
| 4.35 | CCC(c1ccc(NC(=O)Cc2ccc(Cl)cc2)cc1)(C(C)C)n1ccnc1 (racemic) [Compound 755] |
| 2.64 | COc1ccc(CC(=O)Nc2ccc(C(C(C)N(C)CCc3ccccc3)n3ccnc3)cc2)cc1OC (mixture of isomers) [Compound 415] |
| 82.8 | Cc1cnc(C(=O)Nc2ccc(C(C(C)C)n3ccnc3)cc2)cn1 (racemic) [Compound 225] |
| 3.26 | CC(C(c1ccc(NC(=O)Cc2ccc(O)c(Cl)c2)cc1)n1ccnc1)N(C)C (single isomer, unassigned) [Compound 303] |
| 2.43 | CC(C)C(c1ccc(NC(=O)Cc2ccc(N=[N+]=[N-])c(I)c2)cc1)n1ccnc1 (single isomer, unassigned) [Compound 260] |

| Compound | IC50 [nM] |
| --- | --- |
| CCC(CC)C(c1ccc(NC(=O)C(O)c2ccc(Cl)cc2)cc1)n1cncn1 (racemic) [Compound 17, (±)-A1-4-chloro-N-[4-[2-ethyl-1-(1H-1,2,4-triazol-1-yl)butyl]phenyl]-α-hydroxybenzeneacetamide] | 0.999 |
| Cc1cncn1C(c1ccc(Cl)cc1)c1ccc(NC(=O)C=C(c2ccccc2)c2cccc(Cl)c2)cc1 (mixture of isomers) [Compound 693] | > 100 |

Tested on: Ovariectomized rats
Experiment: Vaginal keratinization test on ovariectomized rats (Example C.2)
Type: in vivo
Conditions: Rattus norvegicus, po, estradiol undecylate induced keratinization, per os once daily on days 1-3, active dose = 50% of rats show complete suppression, read-out: LAD (lowest active dose)
Text: as §1
“Vaginal Keratinization Test on Ovariectomized Rats”
Ovariectomized rats were injected subcutaneously with a sesame oil solution containing 100 μg of estradiol undecylate in a volume of 0.1 ml per 100 g body weight and control animals were injected with sesame oil. On day one, two and three, test animals were treated once daily with a per os dose of the test compound and control animals with the drug vehicle (PEG 200). One day after the last treatment, the animals were sacrificed and their vaginas were processed for histological evaluation according to the method described in J. Pharmacol. Exp. Ther. 261(2), 773–779 (1992). A dose at which 50% of the tested rats show complete suppression of the estradiol undecylate induced keratinization effects is defined as an active dose. Table 23 lists the lowest active dose (LAD in mg/kg) of the compounds of formula (I) which were tested.

| Compound | minimal effective dose [mg/kg] |
| --- | --- |
| CCC(CC)C(c1ccc(NC(=S)Nc2nc3ccccc3s2)cc1)n1ccnc1 (racemic) [Compound 705, (±)-N-(2-benzothiazolyl)-N′-[4-[1-(1H-imidazol-1-yl)-2-ethylbutyl]phenyl]-thiourea] | > 5 |

Same assay, conditions: estradiol undecylate induced keratinization, per os once daily on days 1-3, active dose = 50% of rats show complete suppression

| Compound | LAD (lowest active dose) [mg/kg] |
| --- | --- |
| CC(C)C(c1ccc(NC(=O)c2cc3ccccc3[nH]2)cc1)n1ccnc1 (racemic) [Compound 178] | >10.00 |
| Cc1ccc(CC(=O)Nc2ccc(C(CN(C)C)n3ccnc3)cc2)cc1C (racemic) [Compound 433] | >2.50 |
| CCC(CC)C(c1ccc(NC(=O)Cc2c(OC)cccc2OC)cc1)n1ccnc1 (racemic) [Compound 114] | 2.50 |
| CCCC(C)C(c1ccc(NC(=O)Cc2ccc(Cl)cc2)cc1)n1ccnc1 (single isomer, unassigned) [Compound 374] | 2.50 |
| COc1ccc(CC(=O)Nc2ccc(C(C(C)N(C)C)n3ccnc3)cc2)cc1OC (single isomer, unassigned) [Compound 318] | >2.50 |
| CCC(CC)C(c1ccc(NC(=O)CN2CCCCC2)cc1)n1ccnc1 (racemic) [Compound 43] | 2.50 |
| COc1ccc(CCCC(=O)Nc2ccc(C(C(C)N(C)C)n3ccnc3)cc2)cc1OC.O=C(O)C(=O)O (single isomer, unassigned) [Compound 431] | >2.50 |
| COc1ccc(CC(=O)N(C)c2ccc(C(C(C)N(C)C)n3cncn3)cc2)cc1OC (single isomer, unassigned) [Compound 437] | >2.50 |
| COc1ccc(CC(=O)Nc2ccc(C(C(C)O)n3ccnc3)cc2)cc1OC.O (racemic) [Compound 402, (±)-(B)-3,4-dimethoxy-N-[4-[2-hydroxy-1-(1H-imidazol-1-yl)propyl]phenyl]benzeneacetamide monohydrate] | >5.00 |
| COc1ccc(CC(=O)Nc2ccc(C(CN(C)C)n3ccnc3)cc2)cc1OC (stereo not shown) [Compound 380] | >2.50 |
| CCOC(=O)C(C)C(c1ccc(NC(=O)Cc2ccc(Cl)cc2)cc1)n1cncn1 (stereo not shown) [Compound 624] | >2.50 |
| COc1ccc(CC(=O)Nc2ccc(C(C(C)N(C)CCN(C)C)n3ccnc3)cc2)cc1OC (single isomer, unassigned) [Compound 407] | >5.00 |
| CCCN(C)C(C)C(c1ccc(NC(=O)Cc2ccc(OC)c(OC)c2)cc1)n1ccnc1 (single isomer, unassigned) [Compound 414] | 5.00 |
| COc1ccc(NC(=O)Nc2ccc(C(CN(C)C)n3ccnc3)cc2)cc1OC (racemic) [Compound 721] | >2.50 |
| CCOc1ccc(CC(=O)Nc2ccc(C(C(C)N(C)C)n3cncn3)cc2)cc1OCC (single isomer, unassigned) [Compound 285] | >2.50 |
| COc1ccc(CC(=O)Nc2ccc(C(C(C)CN3CCCCC3)n3ccnc3)cc2)cc1OC (single isomer, unassigned) [Compound 390] | >2.50 |
| CN(C)CC(c1ccc(NC(=O)N2CCN(C)CC2)cc1)n1ccnc1 (racemic) [Compound 436] | >5.00 |
| COc1ccc(CCC(=O)Nc2ccc(C(C(C)N(C)C)n3ccnc3)cc2)cc1OC (single isomer, unassigned) [Compound 429] | >2.50 |
| COc1cc(CC(=O)Nc2ccc(C(C(C)N(C)C)n3ccnc3)cc2)ccc1C (single isomer, unassigned) [Compound 315] | >2.50 |
| CCCCOc1ccc(CC(=O)Nc2ccc(C(C(C)N(C)C)n3ccnc3)cc2)cc1 (single isomer, unassigned) [Compound 320] | 5.00 |
| CCCCCC(C)C(c1ccc(NC(=O)/C(C)=C/c2ccccc2)cc1)n1ccnc1 (single isomer, unassigned) [Compound 487] | >5.00 |
| Cc1cc(CC(=O)Nc2ccc(C(C(C)N(C)C)n3ccnc3)cc2)cc(C)c1C (single isomer, unassigned) [Compound 308] | >2.50 |
| CC(C(c1ccc(NC(=O)CCN2CCN(C)CC2)cc1)n1ccnc1)N(C)C (mixture of isomers) [Compound 354] | >5.00 |
| CCN(CC)C(C)C(c1ccc(NC(C)=O)cc1)n1ccnc1 (single isomer, unassigned) [Compound 554] | 2.50 |
| COc1cc(CC(=O)Nc2ccc(C(C(C)N(C)C)n3cncn3)cc2)cc(OC)c1OC (single isomer, unassigned) [Compound 630] | >2.50 |

Reference: patent US7179825B2, “Retinoic acid mimetic anilides” (Janssen Pharmaceutica N.V., priority 1997, dated 2007)
